# Measured values from publication PMC5667507, “A novel ^18F-labelled high affinity agent for PET imaging of the translocator protein” (Chemical Science, 2015).
# Key:
# [1] = Baseline dynamic PET scan of healthy baboon brain; assay type: in vivo; details: whole brain, 240 min dynamic PET, i.v. bolus
# Experimental: (§1) Following PET reconstruction and co-registration to an MRI (Fig. 7a), a time–activity curve for the tracer in the whole brain was established (Fig. 7b). […]
# divided by the animal weight. A secondary spherical VOI was used to define the contralateral kinetics and the tumour to contralateral SUV ratio was calculated as a function of time. […]
# were represented graphically using the GraphPad Prism 6 software (GraphPad Softare Inc).
# 14. Primate PET Methodology
# A baboon (Papio anubis, 21.3 kg) was fasted for up to 12 h prior to imaging. […] Body temperature was maintained using a heated water blanket and monitored by rectal thermometer. Vital signs, including end tidal CO2, SpO2, heart rate, respiration rate and blood pressure, were monitored continuously and recorded at least every 15 min during the study. […]
# (§2) generated and SUV determined as the concentration in the VOI divided by the injected dose divided […]
# exception of the samples collected for metabolite analysis (3.5 mL each), all blood samples were 1 mL each. […] After blood collection, all samples were kept on ice until analysed.
# Radioactivity in whole blood and plasma was assessed with a well-type γ-counter using a 400–1400 keV window (Perkin Elmer Wallac 2480, USA). […]
# [2] = Metabolite analysis of arterial blood samples from baboon (parent fraction); assay type: in vivo, baboon (Papio anubis); details: baboon arterial plasma, 60 minutes post-injection
# Experimental: as §1, §2
# software (GraphPad Softare Inc).
# Arterial blood samples were collected from the baboon every 45 s until 6 min after injection of […]
# exception of the samples collected for metabolite analysis (3.5 mL each), all blood samples were 1 mL each. Samples for metabolite analysis were collected at 6, 15, 30, 60, 120, 150 and 240 min after radiotracer bolus injection. After blood collection, all samples were kept on ice until analysed.
# Radioactivity in whole blood and plasma was assessed with a well-type γ-counter using a 400–1400 keV window (Perkin Elmer Wallac 2480, USA). Plasma samples were processed by acetonitrile denaturation and analysed by HPLC on a Luna C18 column with a mobile phase of MeOH/H2O-Et3N (0.2%) 80/20 at a flow rate of 4 mL/min to estimate the parent fraction.
structure (smiles),measurement,setting,value
CCN(CC)C(=O)c1nc2ccccc2c(-c2ccccc2)c1C[18F] [[^18F]-AB5186 6],peak standardised uptake value (SUV) in brain,[1],1.67
same,parent still intact,[2],29.8%
